In ChEMBL document CHEMBL3600349 (Bioorg Med Chem Lett, 2015):

Tests used:
[1] = target: Melanin-concentrating hormone receptor 1 (Rattus norvegicus, UniProt P97639); assay: Binding affinity to rat MCH-R1
[2] = Apparent permeability from apical to basolateral side in human Caco2 cells at 10 uM; type: ADME, cell-based; details: Caco-2
Cynomolgus monkey [3] = assay: Cardiotoxicity in conscious cynomolgus monkey assessed as systolic and diastolic blood pressure at 3 to 30 mg/kg, po; type: toxicity, organism-based, Macaca fascicularis; details: in vivo
[4] = Aqueous solubility of the compound at pH 2.2; type: physicochemical
hERG (KCNH2) = hERG (KCNH2) (Homo sapiens, UniProt Q12809); assay: Inhibition of human ERG at 10 uM by patch clamp assay
U-937 [5] = assay: Toxicity in human U937 cells assessed as first effect concentration for phospholipidosis by nile red uptake assay; type: cell-based
Salmonella typhimurium = assay: Genotoxicity in Salmonella typhimurium by Ames test; type: toxicity, organism-based; details: salmonella enterica subsp. enterica serovar typhimurium
[6] = target: T1, Nuclear receptor subfamily 1 group I member 2 (Homo sapiens, UniProt O75469); assay: Activation of PXR (unknown origin) at 10 uM relative to rifampicin; type: ADME
T1 sequence (O75469 whole entry): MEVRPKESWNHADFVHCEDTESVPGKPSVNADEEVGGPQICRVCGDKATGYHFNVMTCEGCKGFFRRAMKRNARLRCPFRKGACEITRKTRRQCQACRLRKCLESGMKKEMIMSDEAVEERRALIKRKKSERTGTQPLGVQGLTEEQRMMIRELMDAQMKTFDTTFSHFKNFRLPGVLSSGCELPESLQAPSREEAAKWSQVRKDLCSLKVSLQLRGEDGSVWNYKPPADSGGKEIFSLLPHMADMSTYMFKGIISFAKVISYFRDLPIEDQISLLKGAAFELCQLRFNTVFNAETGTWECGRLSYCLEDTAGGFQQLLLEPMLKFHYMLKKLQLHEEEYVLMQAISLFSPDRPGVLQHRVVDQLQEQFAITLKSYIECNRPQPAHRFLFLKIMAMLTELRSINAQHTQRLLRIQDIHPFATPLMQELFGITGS

[7] = Volume of distribution at steady state in rat; type: ADME, organism-based; details: in vivo, read-out: Vdss
[8] = Metabolic stability in cynomolgus monkey hepatocytes relative to hepatic blood flow; type: ADME, cell-based, Macaca fascicularis, Hepatocyte; details: read-out: Stability
Cynomolgus monkey [9] = assay: Cardiotoxicity in conscious cynomolgus monkey assessed as left ventricular pressure at 3 to 30 mg/kg, po; type: toxicity, organism-based, Macaca fascicularis, Heart left ventricle; details: in vivo
Cytochrome P450 3A4 = Cytochrome P450 3A4 (Homo sapiens, UniProt P08684); assay: Inhibition of CYP3A4 (unknown origin); type: ADME
Cytochrome P450 2C8 = target: T2, Cytochrome P450 2C8 (Homo sapiens, UniProt P10632); assay: Inhibition of CYP2C8 (unknown origin); type: ADME
T2 sequence (P10632 whole entry): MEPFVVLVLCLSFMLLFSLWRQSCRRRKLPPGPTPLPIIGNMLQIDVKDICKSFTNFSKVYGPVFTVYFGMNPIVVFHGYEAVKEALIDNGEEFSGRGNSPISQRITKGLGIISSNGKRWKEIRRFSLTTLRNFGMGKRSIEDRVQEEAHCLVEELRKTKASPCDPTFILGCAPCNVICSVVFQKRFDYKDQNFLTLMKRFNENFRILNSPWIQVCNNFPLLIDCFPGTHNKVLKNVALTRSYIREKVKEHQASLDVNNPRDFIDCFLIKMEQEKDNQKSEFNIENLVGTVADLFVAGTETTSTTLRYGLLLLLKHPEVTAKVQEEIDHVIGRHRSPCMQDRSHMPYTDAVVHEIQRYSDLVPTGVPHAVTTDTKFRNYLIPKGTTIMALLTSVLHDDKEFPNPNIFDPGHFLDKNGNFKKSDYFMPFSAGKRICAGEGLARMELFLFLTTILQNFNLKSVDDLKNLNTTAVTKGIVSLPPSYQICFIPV

[10] = target: Histamine H3 receptor (Homo sapiens) (UniProt Q9Y5N1); assay: Binding affinity to histamine H3 receptor (unknown origin) at 10 uM by radioligand binding assay
[11] = Dissociation constant, pKa of the compound; type: physicochemical
Cynomolgus monkey [12] = assay: Cardiotoxicity in conscious cynomolgus monkey assessed as myocardial contraction at 3 to 30 mg/kg, po; type: toxicity, organism-based, Macaca fascicularis, Myocardium; details: in vivo
[13] = Distribution coefficient, log D of the compound; type: physicochemical; details: octanol/water
[14] = Volume of distribution at steady state in cynomolgus monkey; type: ADME, organism-based, Macaca fascicularis; details: in vivo, read-out: Vdss
[15] = target: Voltage-gated inwardly rectifying potassium channel KCNH2 (Homo sapiens, UniProt Q12809); assay: Inhibition of human ERG by patch clamp assay
[16] = Oral bioavailability in rat; type: ADME, organism-based; details: in vivo
[17] = Mean residence time in iv dosed cynomolgus monkey; type: ADME, organism-based, Macaca fascicularis; details: in vivo
[18] = target: T3, Melanin-concentrating hormone receptor 1 (Homo sapiens, UniProt Q99705); assay: Binding affinity to human MCH-R1 expressed in CHO/Galpha16 cells; type: cell-based
[19] = Oral bioavailability in dog; type: ADME, organism-based, Canis lupus familiaris; details: in vivo
[20] = Mean residence time in iv dosed dog; type: ADME, organism-based, Canis lupus familiaris; details: in vivo
Rattus norvegicus [21] = assay: Antiobesity activity in diet-induced obese Wistar rat model assessed as reduction of body weight at 3 mg/kg, po bid after 4 weeks; type: functional; parameters: scale not given: the % may be the effect or the level left
Cytochrome P450 2D6 = Cytochrome P450 2D6 (Homo sapiens, UniProt P10635); assay: Inhibition of CYP2D6 (unknown origin); type: ADME
Cytochrome P450 2C19 = Cytochrome P450 2C19 (Homo sapiens, UniProt P33261); assay: Inhibition of CYP2C19 (unknown origin); type: ADME
[22] = Oral bioavailability in cynomolgus monkey; type: ADME, organism-based, Macaca fascicularis; details: in vivo
[23] = Plasma protein binding in human; type: ADME, cell-free; details: read-out: PPB (converted)
U-937 [24] = assay: Cytotoxicity against human U937 cells; type: cell-based
[25] = Metabolic stability in human hepatocytes relative to hepatic blood flow; type: ADME, cell-based, Hepatocyte; details: read-out: Stability
CYP3A4 = CYP3A4 (Homo sapiens, UniProt P08684); assay: Time dependent inhibition of CYP3A4 (unknown origin) at 25 uM after 30 mins; type: ADME
[26] = Volume of distribution at steady state in dog; type: ADME, organism-based, Canis lupus familiaris; details: in vivo, read-out: Vdss
Cynomolgus monkey [27] = assay: Clearance in cynomolgus monkey relative to hepatic blood flow; type: ADME, organism-based, Macaca fascicularis, Liver; details: in vivo
[28] = Half life in rat liver microsomes; type: ADME
[29] = Total mean residence time in iv dosed dog; type: ADME, organism-based, Canis lupus familiaris; details: in vivo
Cytochrome P450 2C9 = Cytochrome P450 2C9 (Homo sapiens, UniProt P11712); assay: Inhibition of CYP2C9 (unknown origin); type: ADME
[30] = Lipophilicity, log P of the compound by HPLC analysis; type: physicochemical
[31] = Plasma protein binding in dog; type: ADME, cell-free, Canis lupus familiaris; details: read-out: PPB (converted)
Rattus norvegicus [32] = assay: Antiobesity activity in diet-induced obese Wistar rat model assessed as reduction of body weight at 6 mg/kg, po bid after 4 weeks; type: functional; parameters: scale not given: the % may be the effect or the level left
[33] = Aqueous solubility of the compound at pH 6.8; type: physicochemical
[34] = Intrinsic clearance in human hepatocytes assessed per 10^6 cells; type: ADME, cell-based, Hepatocyte; details: read-out: CLH
Rattus norvegicus [35] = species on record: Rattus norvegicus; assay: Clearance in rat relative to hepatic blood flow; type: ADME, organism-based, Liver; details: in vivo
Rattus norvegicus [36] = assay: Toxicity in diet-induced obese Wistar rat model at 6 to 10 mg/kg, po bid after 4 weeks; type: organism-based; details: in vivo, 672 h
[37] = Binding affinity to dog MCH-R1; parameters: species or system Canis lupus familiaris
[38] = Total mean residence time in iv dosed rat; type: ADME, organism-based; details: in vivo
Rattus norvegicus [39] = assay: Antiobesity activity in diet-induced obese Wistar rat model assessed as reduction of body weight at 10 mg/kg, po bid after 4 weeks; type: functional; parameters: scale not given: the % may be the effect or the level left
[40] = Aqueous solubility of the compound at pH 7.4; type: physicochemical
[41] = target: T3, Melanin-concentrating hormone receptor 1; assay: Displacement of [125I]-MCH from human MCH-R1 expressed in CHO/Galpha16 cells after 60 mins by scintillation counting; type: cell-based
[42] = Total mean residence time in iv dosed cynomolgus monkey; type: ADME, organism-based, Macaca fascicularis; details: in vivo
Cynomolgus monkey [43] = assay: Cardiotoxicity in conscious cynomolgus monkey assessed as decrease in heart rate at 30 mg/kg, po; type: toxicity, organism-based, Macaca fascicularis; details: in vivo
[44] = Mean residence time in iv dosed rat; type: ADME, organism-based; details: in vivo
[45] = Metabolic stability in rat hepatocytes relative to hepatic blood flow; type: ADME, cell-based, Hepatocyte; details: read-out: Stability
[46] = Plasma protein binding in cynomolgus monkey; type: ADME, cell-free, Macaca fascicularis; details: read-out: PPB (converted)
[47] = Aqueous solubility of the compound at pH 4.5; type: physicochemical
U-937 [48] = assay: Toxicity in human U937 cells assessed as phospholipidosis at 100 uM by nile red uptake assay; type: cell-based; details: u-937, 100 µM
[49] = Plasma protein binding in rat; type: ADME, cell-free; details: read-out: PPB (converted)
Canis familiaris = species on record: Canis familiaris; assay: Clearance in dog relative to hepatic blood flow; type: ADME, organism-based, Canis lupus familiaris, Liver; details: in vivo
[50] = Efflux ratio in human Caco2 cells at 10 uM; type: ADME, cell-based; details: Caco-2

T3 sequence (Q99705 whole entry): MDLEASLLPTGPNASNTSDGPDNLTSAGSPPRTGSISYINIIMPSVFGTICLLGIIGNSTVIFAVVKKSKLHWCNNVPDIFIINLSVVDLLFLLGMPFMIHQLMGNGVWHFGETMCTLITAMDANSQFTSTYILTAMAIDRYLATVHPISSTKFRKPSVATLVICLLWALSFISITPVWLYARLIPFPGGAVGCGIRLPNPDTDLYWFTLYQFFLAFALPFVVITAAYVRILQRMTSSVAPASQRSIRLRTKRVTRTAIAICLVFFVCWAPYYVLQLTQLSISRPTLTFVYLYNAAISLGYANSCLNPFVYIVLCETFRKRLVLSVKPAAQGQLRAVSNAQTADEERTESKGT
Chain of Cytochrome P450 2D6 (P10635 whole entry): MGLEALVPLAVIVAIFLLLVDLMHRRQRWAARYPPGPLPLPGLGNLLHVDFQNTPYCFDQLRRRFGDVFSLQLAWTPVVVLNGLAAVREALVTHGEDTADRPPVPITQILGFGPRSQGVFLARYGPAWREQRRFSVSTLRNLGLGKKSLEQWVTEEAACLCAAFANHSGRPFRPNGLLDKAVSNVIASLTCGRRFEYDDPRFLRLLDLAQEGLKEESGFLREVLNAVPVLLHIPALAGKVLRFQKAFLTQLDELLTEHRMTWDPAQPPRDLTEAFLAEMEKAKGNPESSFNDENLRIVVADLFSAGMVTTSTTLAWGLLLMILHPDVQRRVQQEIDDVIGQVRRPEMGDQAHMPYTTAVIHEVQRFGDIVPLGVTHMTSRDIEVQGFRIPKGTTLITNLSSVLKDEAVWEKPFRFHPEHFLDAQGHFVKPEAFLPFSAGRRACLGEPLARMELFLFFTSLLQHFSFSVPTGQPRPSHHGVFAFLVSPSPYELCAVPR
Chain of CYP3A4 (P08684 whole entry): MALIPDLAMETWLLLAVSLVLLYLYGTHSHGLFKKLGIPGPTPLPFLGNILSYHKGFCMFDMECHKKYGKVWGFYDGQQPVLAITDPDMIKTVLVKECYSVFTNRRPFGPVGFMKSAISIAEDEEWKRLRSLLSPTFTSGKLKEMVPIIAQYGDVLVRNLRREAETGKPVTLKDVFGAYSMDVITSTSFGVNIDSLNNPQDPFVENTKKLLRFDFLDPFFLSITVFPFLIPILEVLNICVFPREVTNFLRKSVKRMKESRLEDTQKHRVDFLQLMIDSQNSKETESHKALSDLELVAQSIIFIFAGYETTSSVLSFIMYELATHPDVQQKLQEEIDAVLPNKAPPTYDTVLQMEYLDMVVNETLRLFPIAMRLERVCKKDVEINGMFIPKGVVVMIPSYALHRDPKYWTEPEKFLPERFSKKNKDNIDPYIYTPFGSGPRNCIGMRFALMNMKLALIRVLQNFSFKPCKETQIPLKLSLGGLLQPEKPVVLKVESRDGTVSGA
Chain of Cytochrome P450 3A4 (P08684 whole entry): as above
Chain of Voltage-gated inwardly rectifying potassium channel KCNH2 (Q12809 whole entry): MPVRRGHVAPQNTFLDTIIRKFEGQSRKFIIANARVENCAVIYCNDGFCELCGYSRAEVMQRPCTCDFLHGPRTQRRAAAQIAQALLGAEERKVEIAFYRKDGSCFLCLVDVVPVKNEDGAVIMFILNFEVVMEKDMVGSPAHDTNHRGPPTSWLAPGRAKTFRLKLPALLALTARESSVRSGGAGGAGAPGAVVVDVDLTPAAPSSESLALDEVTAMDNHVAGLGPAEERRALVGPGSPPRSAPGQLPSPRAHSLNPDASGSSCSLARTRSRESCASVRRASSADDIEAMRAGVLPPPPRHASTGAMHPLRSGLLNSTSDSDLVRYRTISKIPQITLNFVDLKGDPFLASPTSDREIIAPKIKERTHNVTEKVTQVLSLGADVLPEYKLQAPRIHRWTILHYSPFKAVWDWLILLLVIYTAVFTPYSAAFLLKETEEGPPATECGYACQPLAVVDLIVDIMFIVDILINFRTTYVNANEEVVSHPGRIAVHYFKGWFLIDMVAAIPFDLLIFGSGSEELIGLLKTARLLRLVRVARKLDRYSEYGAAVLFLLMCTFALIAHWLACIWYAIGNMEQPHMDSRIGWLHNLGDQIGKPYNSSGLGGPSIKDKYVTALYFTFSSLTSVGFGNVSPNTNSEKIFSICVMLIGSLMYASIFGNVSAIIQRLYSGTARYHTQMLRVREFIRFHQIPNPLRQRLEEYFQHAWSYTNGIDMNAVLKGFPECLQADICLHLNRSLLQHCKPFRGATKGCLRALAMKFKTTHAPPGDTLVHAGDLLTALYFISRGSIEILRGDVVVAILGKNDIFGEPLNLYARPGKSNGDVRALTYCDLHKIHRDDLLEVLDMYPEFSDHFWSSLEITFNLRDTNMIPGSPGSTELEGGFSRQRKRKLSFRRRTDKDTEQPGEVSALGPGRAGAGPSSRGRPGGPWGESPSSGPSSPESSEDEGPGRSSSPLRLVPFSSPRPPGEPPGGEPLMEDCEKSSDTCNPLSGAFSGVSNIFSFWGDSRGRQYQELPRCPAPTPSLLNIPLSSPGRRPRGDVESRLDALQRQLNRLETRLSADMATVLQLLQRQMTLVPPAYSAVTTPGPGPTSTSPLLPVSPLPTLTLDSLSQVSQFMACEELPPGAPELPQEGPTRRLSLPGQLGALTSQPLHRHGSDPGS
Chain of hERG (KCNH2) (Q12809 whole entry): as above
Chain of Histamine H3 receptor (Homo sapiens) (Q9Y5N1 whole entry): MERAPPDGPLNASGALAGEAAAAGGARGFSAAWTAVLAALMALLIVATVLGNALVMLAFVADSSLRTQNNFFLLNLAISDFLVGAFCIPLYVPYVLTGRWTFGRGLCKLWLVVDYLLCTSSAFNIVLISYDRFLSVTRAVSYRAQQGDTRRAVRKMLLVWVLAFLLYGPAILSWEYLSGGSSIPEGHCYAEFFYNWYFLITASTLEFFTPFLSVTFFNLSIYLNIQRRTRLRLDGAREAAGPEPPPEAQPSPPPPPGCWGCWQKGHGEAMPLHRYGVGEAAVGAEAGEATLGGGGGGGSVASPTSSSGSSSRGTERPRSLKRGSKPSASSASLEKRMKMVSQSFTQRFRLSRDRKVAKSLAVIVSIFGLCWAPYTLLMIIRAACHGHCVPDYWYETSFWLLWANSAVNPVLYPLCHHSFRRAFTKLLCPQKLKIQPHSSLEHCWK
Chain of Cytochrome P450 2C19 (P33261 whole entry): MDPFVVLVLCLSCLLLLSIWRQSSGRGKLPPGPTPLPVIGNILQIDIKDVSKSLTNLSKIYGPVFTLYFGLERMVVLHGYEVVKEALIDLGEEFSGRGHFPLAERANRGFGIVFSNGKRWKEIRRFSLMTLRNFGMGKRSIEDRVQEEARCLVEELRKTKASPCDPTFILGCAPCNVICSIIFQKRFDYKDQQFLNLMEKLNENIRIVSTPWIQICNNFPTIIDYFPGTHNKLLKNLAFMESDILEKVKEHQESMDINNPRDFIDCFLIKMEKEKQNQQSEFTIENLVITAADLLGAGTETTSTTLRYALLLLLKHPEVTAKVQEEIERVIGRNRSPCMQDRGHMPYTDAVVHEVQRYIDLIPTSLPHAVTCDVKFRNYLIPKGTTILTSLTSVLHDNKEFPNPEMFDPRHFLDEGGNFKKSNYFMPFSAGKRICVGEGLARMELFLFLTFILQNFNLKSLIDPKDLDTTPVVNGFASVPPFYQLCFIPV
Chain of Melanin-concentrating hormone receptor 1 (Rattus norvegicus, UniProt P97639) (P97639 whole entry): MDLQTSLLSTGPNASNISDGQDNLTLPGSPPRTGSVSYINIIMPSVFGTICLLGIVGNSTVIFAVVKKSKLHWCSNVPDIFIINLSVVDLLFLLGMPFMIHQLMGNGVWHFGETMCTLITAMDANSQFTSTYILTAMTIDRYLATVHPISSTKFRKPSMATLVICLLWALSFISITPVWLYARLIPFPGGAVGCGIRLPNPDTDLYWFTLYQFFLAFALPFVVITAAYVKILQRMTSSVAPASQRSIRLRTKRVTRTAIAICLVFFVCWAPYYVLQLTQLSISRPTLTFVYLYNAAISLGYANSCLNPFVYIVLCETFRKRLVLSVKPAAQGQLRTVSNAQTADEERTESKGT

COc1ccc(COc2cnn(CC(=O)c3ccc(CN(C)C)cc3C)c(=O)c2)nc1
IC50 [1]: 0.018 µM
Papp A→B at 10 µM [2]: 52 ×10⁻⁶ cm/s
Activity (Cynomolgus monkey [3]): Non-toxic
solubility [4]: > 1000 µg/mL
inhibition at 10 µM (hERG (KCNH2)): 17%
Activity (U-937 [5]): 200 µM
Activity (Salmonella typhimurium): Non-toxic
Activity [6]: 17%
Vd [7]: 3.3 L/kg
hepatic extraction ratio [8]: 0.43
Activity (Cynomolgus monkey [9]): Non-toxic
IC50 (Cytochrome P450 3A4): 18 µM
IC50 (Cytochrome P450 2C8): > 50 µM
Activity [10]: 78%
pKa [11]: 2.8
Activity (Cynomolgus monkey [12]): Non-toxic
logD [13]: 1.4
Vd [14]: 1.3 L/kg
IC50 [15]: 16 µM
bioavailability [16]: 53%
MRT [17]: 1.2 h
Ki [18]: 0.014 µM
bioavailability [19]: 1.4%
MRT [20]: 0.7 h
Activity (Rattus norvegicus [21]): 7.7%
IC50 (Cytochrome P450 2D6): > 50 µM
IC50 (Cytochrome P450 2C19): > 50 µM
bioavailability [22]: 44%
fraction unbound [23]: 0.07
IC50 (U-937 [24]): 506 µM
hepatic extraction ratio [25]: 0.26
inhibition at 0.5 h, 25 µM (CYP3A4): 85%
Vd [26]: 2.9 L/kg
CL (Cynomolgus monkey [27]): 40%
half-life [28]: > 0.75 h
MRT [29]: 2.9 h
IC50 (Cytochrome P450 2C9): > 50 µM
logP [30]: 2.3
fraction unbound [31]: 0.2
Activity (Rattus norvegicus [32]): 10.1%
solubility [33]: > 1000 µg/mL
hepatocyte CLint [34]: 3.3 µL/min/1e6 cells
CL (Rattus norvegicus [35]): 164%
Activity (Rattus norvegicus [36]): Non-toxic
IC50 [37]: 0.023 µM
MRT [38]: 3.4 h
Activity (Rattus norvegicus [39]): 10.2%
solubility [40]: > 1000 µg/mL
IC50 [41]: 0.022 µM
MRT [42]: 2.2 h
Activity (Cynomolgus monkey [43]): Non-toxic
MRT [44]: 0.5 h
hepatic extraction ratio [45]: 0.78
fraction unbound [46]: 0.1
solubility [47]: > 1000 µg/mL
Activity (U-937 [48]): Non-toxic
fraction unbound [49]: 0.1
CL (Canis familiaris): 229%
efflux ratio at 10 µM [50]: 1
